Converted amounts (≈) assume the structure as drawn. Like-named read-outs stand apart in the source and are kept apart here.
Legend:
[1] = Effect of PVP on the solubilization of drugs in aqueous HPβCD solutions (Example 7); conditions: for S4 /S3: with vs without 0.25% PVP
[2] = Solubility of various drugs: effect of CMC in aqueous HPβCD solutions (Example 1); conditions: for S4 /S3: 0.25% CMC + 10% HPβCD vs 10% HPβCD
[3] = Effect of previously prepared solid HPβCD-polymer complexing agent on solubility (Example 13); format: physicochemical
Experimental: The resultant solutions were heated in sealed containers to 120° C. and maintained at that temperature for 30 minutes, then were lyophilized. The solids thus obtained were ground with a mortar and pestle.
The solid cyclodextrin/polymer products were reconstituted with water to afford solutions containing 9.88% (w/v) HPβCD and 0.12% (w/v) PVP, 0.12% (w/v) or CMC 0.12% (w/v) HPMC. The solubilities (S) of three drugs in these solutions and in an aqueous solution containing 10% (w/v) HPβCD without added polymer were then determined as follows:
An excess amount of each drug was added to each of the four cyclodextrin solutions and the solutions were sonicated in an ultrasonic bath for 3 hours, then allowed to equilibrate for 60 hours at room temperature (23° C.). […] However, by separate preparation of the cyclodextrin/polymer complexing agent as illustrated here, one can readily avoid heating drugs which are unstable at elevated temperature.

physchem = conditions: aqueous 5% (w/v) γcd
[4] = 5% γCD
[5] = format: physicochemical
From the text: (2) The apparent stability constants of the drug -cyclodextrin complexes were increased when the polymers were present in the aqueous cyclodextrin complexation media in accord with the present invention. […];

[6] = Transdermal delivery of hydrocortisone in vitro, Franz diffusion cell (Example 15a); format: in vitro ADME, hairless mice; conditions: 0.25% (w/v) PVP vs no PVP, at maximum, HPβCD about 12% w/v
Experimental: . Female hairless mice were sacrificed by cervical dislocation and their full-thickness skins were removed and placed in Franz diffusion cells of type FDC 400 15FF, diameter 1.5 cm (Vangard International Inc., USA), containing 12.3 ml receptor phase. The receptor phase consisted of phosphate buffer saline pH 7.4 containing 0.3% (w/v) Brij-58™ and 0.4% (v/v) formaldehyde and was stirred with a magnetic bar. The receptor chamber was kept at 37° C. by circulating water through an external jacket. […]. After equilibration for three days, 2.0 ml of the donor phase was applied to the skin surface (the stratum corneum) and the donor chamber covered with Parafilm™ (a paraffin-coated plastic film). Samples of the receptor phase were removed from the cells, at 12 hour intervals, for three days and replaced with fresh buffer solution. The samples were kept frozen until analyzed by HPLC. Each experiment was repeated at least three times. The results depicted in FIG. 4 are the mean values ± standard error of the mean (SE).

[7] = format: physicochemical; conditions: HPαCD MS 0.6 complex
Experimental: (§1) The effect of polyvinylpyrrolidone (PVP) on the enthalpy (ΔH) and the entropy (ΔS) of the stability constant (Kc) of the drug-cyclodextrin complex was determined.
(§2) An excess amount of the drug was added to water containing 0, 0.1, 0.25 or 0.5% (w/v) PVP and various amounts of HPβCD or HPαCD.

[8] = Dissolution of hydrocortisone from tablets, USP XXII paddle apparatus (Example 10); format: physicochemical; conditions: 3 minutes, 37° C.
Experimental: After equilibration for 3 days at room temperature, the suspensions were filtered through 0.45 μm membrane filters, the tiltrates were lyophilized and the solid which formed was ground with a mortar and pestle. The amount of hydrocortisone incorporated into the HPβCD complex was determined by HPLC.
Individual disks of 200 mg hydrocortisone-HPβCD complex were compressed in a hydraulic press under vacuum and a force of 1×10^4 kg for 1.5 minutes using a 13 mm (diameter) IR potassium bromide pellet punch.
The dissolution studies were carried out using a USP XXII described paddle apparatus for dissolution rate determination. The release rate was determined at 37±1° C. and 100 rpm by adding one tablet to 900 ml of water. Samples were withdrawn at various time intervals, filtered through 0.45 membrane filters and analyzed by HPLC.

[9] = for flux (F) through hairless mouse skin: 37° C., mean ± standard deviation, 4 times
[10] = ΔH, ΔS and stability constant (Kc) of drug-HPβCD MS 0.6 complexes, effect of PVP (Example 17); format: physicochemical; conditions: HPβCD MS 0.6 complex
Experimental: as §1, §2

NC(=O)N1c2ccccc2C=Cc2ccccc21 [Carbamazepine, carbamazepine]
solubility at 72 h ([1]; 0.25% pvp, 10% hpβcd): 7500 µg/mL (≈ 31700 µM)
solubility at 72 h ([1]; 10% hpβcd ms 0.7): 6430 µg/mL (≈ 27200 µM)
solubility at 72 h ([1]; aqueous 0.25% pvp): 310 µg/mL (≈ 1310 µM)
solubility at 72 h ([1]; water): 110 µg/mL (≈ 466 µM)
S4 /S3 [1]: 1.17
S4 /S3 [2]: 1.31
solubility ([2]; 0.25% cmc + 10% hpbetacd): 9200 µg/mL
solubility ([2]; aqueous 0.25% cmc): 200 µg/mL (≈ 846 µM)
solubility ([2]; aqueous 10% hpbetacd): 7000 µg/mL (≈ 29600 µM)
solubility ([2]; water): 110 µg/mL (≈ 466 µM)
solubility ([3]; 9.88% hpbetacd + 0.12% cmc, 9.88% (w/v) HPβCD and 0.12% (w/v) CMC, read-out: S3 solubility): 6660 µg/mL
solubility ([3]; 9.88% hpbetacd + 0.12% hpmc, 9.88% (w/v) HPβCD and 0.12% (w/v) HPMC, read-out: S4 solubility): 9530 µg/mL
solubility ([3]; 9.88% hpbetacd + 0.12% pvp, 9.88% (w/v) HPβCD and 0.12% (w/v) PVP, read-out: S2 solubility): 9800 µg/mL
solubility ([3]; 10% hpbetacd, 10% (w/v) HPβCD, read-out: S1 solubility): 7000 µg/mL (≈ 29600 µM)
solubility (physchem): 490 µg/mL (≈ 2070 µM)
Scp /Sco ([4]; CMC): 1.33
Scp /Sco ([4]; HPMC): 2.27
Scp /Sco ([4]; PVP): 2.18

C[C@@H]1C[C@H]2[C@@H]3CCC4=CC(=O)C=C[C@]4(C)[C@@]3(F)[C@@H](O)C[C@]2(C)[C@@]1(O)C(=O)CO [Dexamethasone, dexamethasone]
solubility at 72 h ([1]; 0.25% pvp, 10% hpβcd): 8000 µg/mL (≈ 20400 µM)
solubility at 72 h ([1]; 10% hpβcd ms 0.7): 7530 µg/mL (≈ 19200 µM)
solubility at 72 h ([1]; aqueous 0.25% pvp): 330 µg/mL (≈ 841 µM)
solubility at 72 h ([1]; water): 260 µg/mL (≈ 662 µM)
S4 /S3 [1]: 1.06
increase in apparent stability constant [5]: about 26%
S4 /S3 [2]: 1.04
solubility ([2]; 0.25% cmc + 10% hpbetacd): 8750 µg/mL
solubility ([2]; aqueous 0.25% cmc): 330 µg/mL (≈ 841 µM)
solubility ([2]; aqueous 10% hpbetacd): 8430 µg/mL (≈ 21500 µM)
solubility ([2]; water): 260 µg/mL (≈ 662 µM)

C[C@]12CCC(=O)C=C1CC[C@@H]1[C@@H]2[C@@H](O)C[C@@]2(C)[C@H]1CC[C@]2(O)C(=O)CO [Hydrocortisone, hydrocortisone]
flux increase with PVP [6]: about 40%
ΔH ([7]; PVP 0.00% w/v): -7.67 kcal/mol
ΔS ([7]; PVP 0.00% w/v): -70.2 J mol^-1 K^-1
ΔH ([7]; PVP 0.10% w/v): -9.39 kcal/mol
ΔS ([7]; PVP 0.10% w/v): -94.5 J mol^-1 K^-1
ΔH ([7]; PVP 0.25% w/v): -11.6 kcal/mol
ΔS ([7]; PVP 0.25% w/v): -124.2 J mol^-1 K^-1
ΔH ([7]; PVP 0.50% w/v): -8.53 kcal/mol
ΔS ([7]; PVP 0.50% w/v): -81.9 J mol^-1 K^-1
hydrocortisone dissolved ([8]; HPβCD complex formed without CMC, average of four): 68.3%
hydrocortisone dissolved ([8]; HPβCD complex with 0.1% (w/v) CMC): 74.2%
hydrocortisone dissolved ([8]; HPβCD complex with 0.25% (w/v) CMC): 81.0%
flux (F) through hairless mouse skin ([9]; 6% (w/v) HPβCD MS 0.6 and 0.25% (w/v) PVP): 0.158 ± 0.035 μm/cm^2 /h
transdermal delivery ([9]; PVP-containing sample vs without PVP): over two times faster
flux (F) through hairless mouse skin ([9]; aqueous 8% (w/v) HPβCD MS 0.6): 0.075 ± 0.023 μm/cm^2 /h
ΔH ([10]; PVP 0.00% w/v): -4.88 kcal/mol
ΔS ([10]; PVP 0.00% w/v): -6.2 J mol^-1 K^-1
ΔH ([10]; PVP 0.10% w/v): -9.8 kcal/mol
ΔS ([10]; PVP 0.10% w/v): -68.6 J mol^-1 K^-1
ΔH ([10]; PVP 0.25% w/v): -8.72 kcal/mol
ΔS ([10]; PVP 0.25% w/v): -56.4 J mol^-1 K^-1
ΔH ([10]; PVP 0.50% w/v): -9.27 kcal/mol
ΔS ([10]; PVP 0.50% w/v): -64.9 J mol^-1 K^-1
